For one compound, speed of sound and mass density results are on record in the NIST ThermoML archive (doi:10.1021/acs.jced.9b00354).

The series is described as follows: mn = molality of the nth substance listed, in mol/kg. Particulars: 308.15 K, 100 kPa, Liquid, m1 = 0.0148.

Numbers after ± are expanded uncertainties.

`O=S(=O)([O-])[O-].[Ca+2]` [calcium sulfate] + O: where the note is “Single path-length method”, the speed of sound is 1521.4 ± 0.7 m/s. Also, under “Vibrating tube method”, the mass density worked out at 995.9 ± 10 kg/m3.
